ChEMBL document CHEMBL2069178, “A combined targeted/phenotypic approach for the identification of new antiangiogenics agents active on a zebrafish model: from in silico screening to cyclodextrin formulation” (Bioorg Med Chem Lett, 2012)
Active and inactive are the calls of the source. The calls are words filed in the database; no cut-off is given here.

Columns and labels:
HUVEC [1] = test: Antiangiogenic activity in HUVEC co-cultured with vascular smooth muscle cells assessed as inhibition of cell growth at […] after 72 hrs; type: functional, cell-based; details: Homo sapiens
HUVEC [2] = test: Antiangiogenic activity in HUVEC co-cultured with vascular smooth muscle cells assessed as inhibition of network formation at […] after 72 hrs; type: functional, cell-based; details: Homo sapiens
HUVEC [3] = test: Antiangiogenic activity in HUVEC co-cultured with vascular smooth muscle cells assessed as inhibition of network formation at 1.8 after 72 hrs; type: functional, cell-based; details: Homo sapiens
HUVEC [4] = test: Antiangiogenic activity in HUVEC co-cultured with vascular smooth muscle cells assessed as inhibition of network formation at 10 to 15 uM after 72 hrs; type: functional, cell-based; details: Homo sapiens
[5] = target: Ephrin type-B receptor 4 (Homo sapiens) (UniProt P54760); test: Inhibition of EphB4 at 10 uM
Homo sapiens [6] = species: Homo sapiens; test: Inhibition of PKA at 10 uM
[7] = Permeability of the compound assessed as membrane retention by PAMPA; type: ADME
[8] = target: Focal adhesion kinase 1 (Homo sapiens) (UniProt Q05397); test: Inhibition of FAK at 10 uM
[9] = target: Epidermal growth factor receptor (Homo sapiens) (UniProt P00533); test: Inhibition of HER-1 at 10 uM
[10] = target: Hepatocyte growth factor receptor (Homo sapiens) (UniProt P08581); test: Inhibition of Met at 10 uM
[11] = target: Proto-oncogene tyrosine-protein kinase receptor Ret (Homo sapiens) (UniProt P07949); test: Inhibition of Ret at 10 uM
Homo sapiens [12] = species: Homo sapiens; test: Inhibition of PKB at 10 uM
HUVEC [13] = test: Cytotoxicity against HUVEC co-cultured with vascular smooth muscle cells assessed as rounded-up, unconnected and unicellular morphology phenotype; type: cell-based; details: human
[14] = target: Cyclin-dependent kinase 2 (Homo sapiens) (UniProt P24941); test: Inhibition of CDK2A at 10 uM
[15] = target: T1, Vascular endothelial growth factor receptor 2 (Homo sapiens, UniProt P35968); test: Inhibition of VEGFR2 expressed in porcine aortic endothelial cells; type: cell-based, Endothelial cell
[16] = target: Insulin-like growth factor 1 receptor (Homo sapiens) (UniProt P08069); test: Inhibition of IGF-1R at 10 uM
[17] = system: Serine/threonine-protein kinase B-raf (Homo sapiens), P15056 [V600E]; test: Inhibition of B-Raf V599E mutant at 10 uM
[18] = target: T1, Vascular endothelial growth factor receptor 2; test: Inhibition of VEGFR-2 at 10 uM
HUVEC [19] = test: Antiangiogenic activity in HUVEC co-cultured with vascular smooth muscle cells assessed as inhibition of network formation at 1.8 to 16 uM after 72 hrs; type: functional, cell-based; details: Homo sapiens
[20] = target: 3-phosphoinositide-dependent protein kinase 1 (Homo sapiens) (UniProt O15530); test: Inhibition of PDK1 at 10 uM
Danio rerio = species: Danio rerio; test: Toxicity in embryos of zebrafish assessed as induction of growth malformation at 0.5 to 2 uM treated 16 hrs post fertilization measured after 24 hrs; type: organism-based; details: in vivo
[21] = target: Tyrosine-protein kinase receptor UFO (Homo sapiens) (UniProt P30530); test: Inhibition of Axl at 10 uM
[22] = target: Tyrosine-protein kinase JAK2 (Homo sapiens) (UniProt O60674); test: Inhibition of Jak2 at 10 uM
[23] = target: Receptor-type tyrosine-protein kinase FLT3 (Homo sapiens) (UniProt P36888); test: Inhibition of Flt-3 at 10 uM
Liver microsomes = test: Metabolic stability of the compound in human liver microsomes assessed as compound remaining; type: ADME, Microsome
[24] = target: Angiopoietin-1 receptor (Homo sapiens) (UniProt Q02763); test: Inhibition of Tek at 10 uM
[25] = target: Proto-oncogene tyrosine-protein kinase Src (Homo sapiens) (UniProt P12931); test: Inhibition of Src at 10 uM
Homo sapiens [26] = species: Homo sapiens; test: Inhibition of FGFR3 […] mutant at 10 uM
[27] = Apparent permeability of the compound assessed as membrane permeation by PAMPA; type: ADME
HUVEC [28] = test: Cytotoxicity against HUVEC co-cultured with vascular smooth muscle cells assessed as cell death at 16 uM; type: cell-based; details: human
HUVEC [29] = test: Antiangiogenic activity in HUVEC co-cultured with vascular smooth muscle cells assessed as inhibition of network formation at 1.8 to 15 uM after 72 hrs; type: functional, cell-based; details: Homo sapiens
[30] = target: Tyrosine-protein kinase ABL1 (Homo sapiens, UniProt P00519); test: Inhibition of Abl
[31] = target: Proto-oncogene tyrosine-protein kinase Src (Homo sapiens) (UniProt P12931); test: Inhibition of c-Src at 100 uM

Sequence of Proto-oncogene tyrosine-protein kinase Src (Homo sapiens) (P12931 2-536 limits assumed): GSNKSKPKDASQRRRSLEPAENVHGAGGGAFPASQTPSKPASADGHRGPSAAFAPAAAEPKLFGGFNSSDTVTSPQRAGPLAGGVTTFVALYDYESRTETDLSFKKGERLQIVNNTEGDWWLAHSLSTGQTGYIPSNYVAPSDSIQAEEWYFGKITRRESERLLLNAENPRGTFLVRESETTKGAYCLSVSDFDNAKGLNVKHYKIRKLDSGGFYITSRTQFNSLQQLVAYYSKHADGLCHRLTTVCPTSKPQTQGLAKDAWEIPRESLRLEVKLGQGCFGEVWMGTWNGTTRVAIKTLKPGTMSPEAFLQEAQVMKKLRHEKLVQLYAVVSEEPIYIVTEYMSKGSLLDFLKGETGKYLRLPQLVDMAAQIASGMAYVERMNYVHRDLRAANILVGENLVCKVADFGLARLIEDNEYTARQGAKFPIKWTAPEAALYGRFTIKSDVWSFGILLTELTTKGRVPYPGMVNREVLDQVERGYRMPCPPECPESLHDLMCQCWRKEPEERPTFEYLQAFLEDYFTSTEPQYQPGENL
T1 sequence (P35968 whole entry): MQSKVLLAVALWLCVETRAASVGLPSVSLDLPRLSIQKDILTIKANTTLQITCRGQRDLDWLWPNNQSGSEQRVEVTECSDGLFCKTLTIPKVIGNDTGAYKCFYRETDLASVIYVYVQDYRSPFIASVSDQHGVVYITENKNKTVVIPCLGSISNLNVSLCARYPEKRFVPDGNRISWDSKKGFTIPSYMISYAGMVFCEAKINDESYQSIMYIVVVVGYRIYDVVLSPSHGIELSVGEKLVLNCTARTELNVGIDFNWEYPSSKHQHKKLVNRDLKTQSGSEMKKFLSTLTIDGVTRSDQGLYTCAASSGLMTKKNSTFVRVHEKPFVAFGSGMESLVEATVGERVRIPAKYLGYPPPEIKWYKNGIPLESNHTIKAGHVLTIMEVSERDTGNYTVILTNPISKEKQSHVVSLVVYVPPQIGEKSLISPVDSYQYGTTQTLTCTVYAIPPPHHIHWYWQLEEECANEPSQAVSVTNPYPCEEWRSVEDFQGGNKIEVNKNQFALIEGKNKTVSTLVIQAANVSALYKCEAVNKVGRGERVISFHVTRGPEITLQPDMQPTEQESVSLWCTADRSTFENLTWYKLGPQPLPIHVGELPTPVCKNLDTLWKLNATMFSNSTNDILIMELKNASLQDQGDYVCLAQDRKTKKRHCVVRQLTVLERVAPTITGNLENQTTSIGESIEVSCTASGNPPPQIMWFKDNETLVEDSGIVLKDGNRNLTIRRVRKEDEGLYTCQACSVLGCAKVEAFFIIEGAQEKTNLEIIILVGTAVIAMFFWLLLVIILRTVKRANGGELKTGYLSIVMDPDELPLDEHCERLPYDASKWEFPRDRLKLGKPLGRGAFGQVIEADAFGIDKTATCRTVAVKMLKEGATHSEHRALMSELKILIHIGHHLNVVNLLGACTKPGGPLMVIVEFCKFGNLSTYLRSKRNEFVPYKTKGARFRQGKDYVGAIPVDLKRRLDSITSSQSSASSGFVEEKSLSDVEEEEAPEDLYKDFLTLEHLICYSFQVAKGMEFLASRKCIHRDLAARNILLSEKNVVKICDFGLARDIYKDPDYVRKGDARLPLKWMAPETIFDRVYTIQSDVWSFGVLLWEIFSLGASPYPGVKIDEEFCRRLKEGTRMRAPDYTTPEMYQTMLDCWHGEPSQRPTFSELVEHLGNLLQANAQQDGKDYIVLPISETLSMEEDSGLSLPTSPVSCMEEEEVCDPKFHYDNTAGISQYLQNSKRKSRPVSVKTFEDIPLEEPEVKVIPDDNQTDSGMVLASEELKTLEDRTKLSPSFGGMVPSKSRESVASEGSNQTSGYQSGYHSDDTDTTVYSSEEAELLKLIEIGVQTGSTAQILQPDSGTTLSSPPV
Sequence of Tyrosine-protein kinase receptor UFO (Homo sapiens) (P30530 whole entry): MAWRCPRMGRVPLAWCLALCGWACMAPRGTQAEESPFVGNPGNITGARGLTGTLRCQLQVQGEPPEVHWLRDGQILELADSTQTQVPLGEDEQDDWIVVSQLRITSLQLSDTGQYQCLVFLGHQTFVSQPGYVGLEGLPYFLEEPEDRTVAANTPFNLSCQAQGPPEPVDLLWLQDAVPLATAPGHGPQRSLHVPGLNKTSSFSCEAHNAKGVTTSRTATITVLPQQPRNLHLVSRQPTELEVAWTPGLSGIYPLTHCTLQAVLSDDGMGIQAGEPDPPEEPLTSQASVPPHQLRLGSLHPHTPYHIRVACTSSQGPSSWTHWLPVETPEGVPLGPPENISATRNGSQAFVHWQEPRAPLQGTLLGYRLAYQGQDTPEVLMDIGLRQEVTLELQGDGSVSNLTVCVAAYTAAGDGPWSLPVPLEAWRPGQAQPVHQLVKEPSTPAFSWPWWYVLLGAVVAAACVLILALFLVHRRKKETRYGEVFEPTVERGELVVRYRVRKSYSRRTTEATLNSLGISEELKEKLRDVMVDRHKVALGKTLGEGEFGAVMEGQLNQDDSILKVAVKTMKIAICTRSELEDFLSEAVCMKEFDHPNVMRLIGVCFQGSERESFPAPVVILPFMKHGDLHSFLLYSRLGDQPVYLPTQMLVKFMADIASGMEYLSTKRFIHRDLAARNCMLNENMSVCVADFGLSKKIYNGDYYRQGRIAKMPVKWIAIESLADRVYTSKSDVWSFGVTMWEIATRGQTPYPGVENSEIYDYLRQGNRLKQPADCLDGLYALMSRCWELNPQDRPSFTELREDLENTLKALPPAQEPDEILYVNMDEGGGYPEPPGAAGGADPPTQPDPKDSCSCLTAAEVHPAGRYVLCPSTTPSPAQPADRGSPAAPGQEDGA
Sequence of Angiopoietin-1 receptor (Homo sapiens) (Q02763 whole entry): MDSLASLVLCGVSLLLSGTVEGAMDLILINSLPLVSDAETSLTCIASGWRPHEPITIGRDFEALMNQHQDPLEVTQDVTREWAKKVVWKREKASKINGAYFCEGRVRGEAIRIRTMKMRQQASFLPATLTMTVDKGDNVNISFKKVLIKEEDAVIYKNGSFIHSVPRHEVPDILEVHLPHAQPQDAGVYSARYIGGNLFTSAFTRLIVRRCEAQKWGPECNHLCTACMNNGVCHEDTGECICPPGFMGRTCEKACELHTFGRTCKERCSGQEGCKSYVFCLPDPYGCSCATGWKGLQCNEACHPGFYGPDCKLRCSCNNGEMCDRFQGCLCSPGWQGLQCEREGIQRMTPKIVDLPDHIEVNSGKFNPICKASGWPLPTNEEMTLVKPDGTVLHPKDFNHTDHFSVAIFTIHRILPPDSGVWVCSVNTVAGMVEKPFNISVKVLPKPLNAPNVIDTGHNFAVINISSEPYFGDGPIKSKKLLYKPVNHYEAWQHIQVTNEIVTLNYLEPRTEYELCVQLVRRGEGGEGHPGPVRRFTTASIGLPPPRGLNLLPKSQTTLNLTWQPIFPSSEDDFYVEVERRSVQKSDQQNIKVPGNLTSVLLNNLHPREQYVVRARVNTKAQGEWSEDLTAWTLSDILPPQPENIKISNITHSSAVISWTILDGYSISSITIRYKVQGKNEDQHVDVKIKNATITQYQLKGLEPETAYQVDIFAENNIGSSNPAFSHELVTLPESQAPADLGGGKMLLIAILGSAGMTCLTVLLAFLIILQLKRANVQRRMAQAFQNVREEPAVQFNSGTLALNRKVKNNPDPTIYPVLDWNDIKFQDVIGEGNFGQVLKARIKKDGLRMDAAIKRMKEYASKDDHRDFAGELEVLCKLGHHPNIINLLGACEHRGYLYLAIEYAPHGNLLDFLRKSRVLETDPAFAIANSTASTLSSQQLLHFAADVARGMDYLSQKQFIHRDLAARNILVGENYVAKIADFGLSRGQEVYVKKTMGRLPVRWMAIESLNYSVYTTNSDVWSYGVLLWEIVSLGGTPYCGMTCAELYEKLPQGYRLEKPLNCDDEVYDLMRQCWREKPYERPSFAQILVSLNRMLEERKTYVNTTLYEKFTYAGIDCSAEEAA
Sequence of Focal adhesion kinase 1 (Homo sapiens) (Q05397 2-1052 limits assumed): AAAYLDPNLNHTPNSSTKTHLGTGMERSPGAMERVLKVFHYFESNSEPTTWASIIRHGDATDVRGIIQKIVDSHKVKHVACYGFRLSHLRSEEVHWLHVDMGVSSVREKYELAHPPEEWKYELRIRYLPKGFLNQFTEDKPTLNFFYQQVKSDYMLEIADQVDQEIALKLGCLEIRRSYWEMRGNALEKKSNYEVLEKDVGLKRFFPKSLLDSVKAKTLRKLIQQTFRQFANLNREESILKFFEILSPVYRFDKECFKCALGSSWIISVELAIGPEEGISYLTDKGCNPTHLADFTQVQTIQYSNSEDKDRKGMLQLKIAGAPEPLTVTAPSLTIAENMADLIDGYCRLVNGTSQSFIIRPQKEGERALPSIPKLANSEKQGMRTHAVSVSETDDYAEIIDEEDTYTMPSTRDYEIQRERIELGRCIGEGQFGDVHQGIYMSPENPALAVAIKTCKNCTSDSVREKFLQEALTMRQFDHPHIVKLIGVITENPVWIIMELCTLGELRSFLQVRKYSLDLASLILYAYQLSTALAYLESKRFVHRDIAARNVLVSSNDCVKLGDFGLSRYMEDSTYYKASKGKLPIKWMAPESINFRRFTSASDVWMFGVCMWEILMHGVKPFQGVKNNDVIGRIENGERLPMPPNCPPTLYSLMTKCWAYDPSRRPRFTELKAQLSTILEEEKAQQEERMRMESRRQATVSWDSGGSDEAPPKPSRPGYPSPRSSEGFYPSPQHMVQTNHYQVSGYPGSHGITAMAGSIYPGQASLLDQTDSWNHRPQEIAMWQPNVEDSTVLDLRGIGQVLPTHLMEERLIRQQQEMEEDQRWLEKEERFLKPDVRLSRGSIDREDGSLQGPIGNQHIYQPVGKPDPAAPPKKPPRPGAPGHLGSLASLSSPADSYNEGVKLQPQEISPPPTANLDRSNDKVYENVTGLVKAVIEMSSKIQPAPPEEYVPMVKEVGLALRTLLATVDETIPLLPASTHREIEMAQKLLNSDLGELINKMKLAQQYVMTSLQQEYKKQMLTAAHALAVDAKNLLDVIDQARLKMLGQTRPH

Cc1cn(-c2cc(NC(=O)c3ccc(C)c(Nc4nccc(-c5cccnc5)n4)c3)cc(C(F)(F)F)c2)cn1
inhibition (HUVEC [1]): Active
inhibition (HUVEC [2]): inactive
inhibition (HUVEC [3]): inactive
inhibition (HUVEC [4]): Active

ClC(Cn1ncc2c(NCc3ccccc3)ncnc21)c1ccccc1 (stereo unspecified)
inhibition [5]: 25%
inhibition (Homo sapiens [6]): 0%
permeability [7]: 6%
inhibition [8]: 0%
inhibition [9]: 56%
inhibition [10]: 10%
inhibition [11]: 5%
inhibition (Homo sapiens [12]): 17%
Activity (HUVEC [13]): Non-toxic
inhibition [14]: 8%
IC50 [15]: 1 µM
inhibition [16]: 0%
inhibition [17]: 42%
inhibition [18]: 29%
inhibition (HUVEC [19]): Active
inhibition [20]: 0%
Activity (Danio rerio): Toxic
inhibition [21]: 8%
inhibition [22]: 6%
inhibition [23]: 13%
Stability (Liver microsomes): 82%
inhibition [24]: 6%
inhibition [25]: 89%
inhibition (Homo sapiens [26]): 0%

Clc1cccc(Nc2nc(SCCN3CCOCC3)nc3c2cnn3CC(Cl)c2ccccc2)c1 (stereo unspecified)
permeability [7]: 47.7%
Activity (HUVEC [13]): Non-toxic
inhibition (HUVEC [19]): Active
Activity (Danio rerio): Toxic
Stability (Liver microsomes): 92.5%
Papp [27]: 3 ×10⁻⁶ cm/s

CSc1nc(NCCc2ccccc2)c2cnn(CC(Cl)c3ccccc3)c2n1 (stereo unspecified)
Activity (HUVEC [28]): Toxic

Cc1nc(Nc2ncc(C(=O)Nc3c(C)cccc3Cl)s2)cc(N2CCN(CCO)CC2)n1
inhibition (HUVEC [1]): Active
inhibition (HUVEC [29]): Active
inhibition (HUVEC [2]): inactive

C(=C/n1ncc2c(NCCc3ccccc3)ncnc21)/c1ccccc1
Ki [30]: 9.75 µM
inhibition [31]: inactive

ClC(Cn1ncc2c(NCCc3ccccc3)nc(SCCN3CCOCC3)nc21)c1ccccc1 (stereo unspecified)
inhibition [31]: inactive
